Source: paper PMC6792352, “Limited Chemical Structural Diversity Found to Modulate Thyroid Hormone Receptor in the Tox21 Chemical Library” (Environmental Health Perspectives, 2019)
Counter-ions that a name gives are not always drawn.

Test: in vitro
Details: rat, gh3-tre-luc cells

Compound | CC50 at 24 h (AC50 (uM) modified / 1000) [µM] | further results
COC(OC)OC [Trimethoxymethane] | > 90 | –
N[C@@H](C=O)[C@@H](O)[C@@H](O)[C@H](O)CO [Galactosamine hydrochloride] | > 90 | –
FC(F)(F)C(F)(F)C(F)(F)C(F)(F)C(F)(F)C(F)(F)CCI [1H,1H,2H,2H-Perfluorooctyl iodide] | > 50 | –
CCN(CC)CCOc1ccc2nc(N(C)C)sc2c1 [Diamthazole] | > 50 | –
CC1(C)OC[C@@H]2O[C@@]3(C(=O)O)OC(C)(C)O[C@H]3[C@@H]2O1 [Dikegulac] | > 90 | –
Cc1cc(-c2ccccc2)nnc1NCCN1CCOCC1 [Minaprine dihydrochloride] | > 50 | –
NC(=O)c1ccccc1[N+](=O)[O-] [2-Nitrobenzamide] | > 90 | –
COc1c2occc2c(OC)c2c(=O)cc(C)oc12 [Khellin] | > 20 | –
CC(C)(c1cc(Br)c(OCCO)c(Br)c1)c1cc(Br)c(OCCO)c(Br)c1 | 44.3 | –
CCN1CCOCC1 [N-Ethylmorpholine] | > 90 | –
COc1cccc(N(C)C(=S)Oc2ccc3c(c2)CCCC3)n1 [Liranaftate] | > 50 | –
CCCCCCCCCCC(=O)O [Undecanoic acid] | > 90 | –
NCC(=O)O [Glycine] | > 50 | –
CN1C(CCl)Nc2cc(Cl)c(S(N)(=O)=O)cc2S1(=O)=O (stereo not drawn) [Methyclothiazide] | > 50 | –
COc1cc(-c2ccc(N=C=O)c(OC)c2)ccc1N=C=O [3,3'-Dimethoxybenzidine-4,4'-diisocyanate] | > 50 | –
COc1ccc(/C=C/C(=O)O)cc1 [4-Methoxy-(2E)-cinnamic acid] | > 50 | –
O=[N+]([O-])c1cccc(Cl)c1 [1-Chloro-3-nitrobenzene] | > 90 | –
CC(C)C(=O)O [2-Methylpropanoic acid] | > 90 | –
OCC(CO)(CO)COCC(CO)(CO)CO [Dipentaerythritol] | > 90 | –
CCOC(=O)c1ccc(O)cc1 [Ethylparaben] | > 90 | –
N[C@@H](Cc1cc(I)c(Oc2cc(I)c(O)c(I)c2)c(I)c1)C(=O)O [Levothyroxine] | > 60 | –

Compound | CC50 at 24 h (AC50 (uM) modified / 1000) [µM] | further results
CC1(COc2ccc(CC3SC(=O)NC3=O)cc2)CCCCC1 (stereo not drawn) [Ciglitizone] | 26.4 | –
CCO[Si](CC)(OCC)OCC [Ethyltriethoxysilane] | > 90 | –
NNc1nnc(Cc2ccncc2)c2ccccc12 [Picodralazine] | > 50 | –
O=C(O)C(Cl)(Cl)Br [Bromodichloroacetic acid] | – | CC50 at 24 h (AC50 (uM) modified / 1000, Tox21_110001=Tox21_200923, viability, 1 nM T3 present, 24 h): > 90 µM
[N-]=[N+]=CC(=O)OC[C@H](N)C(=O)O [Azaserine] | > 50 | –
NCC(O)CC(=O)O (stereo not drawn) [4-Amino-3-hydroxybutyric acid] | > 50 | –
O=C(O)CCNC(=O)c1ccc(/N=N/c2ccc(O)c(C(=O)O)c2)cc1 [Balsalazide] | > 50 | –
CCCc1cc(C(N)=S)ccn1 [Prothionamide] | > 50 | –
CNC(=O)C(c1ccccc1)c1ccccc1 [N-methyl-alpha-phenylbenzeneacetamide] | > 90 | –
OCC(CO)N[C@H]1C[C@](O)(CO)[C@@H](O)[C@H](O)[C@H]1O [Voglibose] | > 50 | –
O=C(O)COc1ccccc1/C=N/NC(=O)c1ccncc1 [Aconiazide] | > 50 | –
C[C@H]1O[C@H](O[C@H]2[C@H](O)[C@@H](O)[C@@H](O[C@@H]([C@H](O)[C@@H](O)C=O)[C@H](O)CO)O[C@@H]2CO)[C@H](O)[C@@H](O)[C@@H]1N[C@H]1C=C(CO)[C@@H](O)[C@H](O)[C@H]1O [Acarbose] | > 50 | –
N[C@H](CCC(=O)O)C(=O)O [D-Glutamic acid] | > 50 | –
CC1=CC(C)C(C=O)CC1 (stereo not drawn) [2,4-Dimethyl-3-cyclohexene-1-carboxaldehyde] | > 90 | –
CC(CCc1ccccc1)NC(C)C(O)c1ccc(O)cc1 (stereo not drawn) [Nylidrin] | 41.8 | –
CC(CC=O)CCCC(C)(C)O (stereo not drawn) [Hydroxycitronella] | > 90 | –
N#Cc1cccc(C#N)c1 [1,3-Benzenedicarbonitrile] | > 90 | –
CC(CC(=O)O)CC(C)(C)C (stereo not drawn) [3,5,5-Trimethylhexanoic acid] | > 90 | –
CC(C)Oc1cccc(NC(=O)c2ccccc2C(F)(F)F)c1 [Flutolanil] | > 90 | –
C=CCOC(=O)c1ccccc1N [Allyl anthranilate] | – | CC50 at 24 h (AC50 (uM) modified / 1000, Tox21_110001=Tox21_201129, viability, 1 nM T3 present, 24 h): > 90 µM
O=c1[nH]nc(-c2ccc([N+](=O)[O-])o2)o1 [5-(5-Nitro-2-furyl)-1,3,4-oxadiazole-2-ol] | 67.5 | –

Compound | CC50 at 24 h (AC50 (uM) modified / 1000) [µM] | further results
CN(C)CCc1c[nH]c2ccc(C[C@H]3COC(=O)N3)cc12 [Zolmitriptan] | > 50 | –
CCN1CCC2(CC1)COc1cc3c(cc12)N(C(=O)c1ccc(-c2ccc(-c4nnc(C)o4)cc2C)cc1)CC3 [SB236057A] | 3 | –
O=S1(=O)CC=CC1 [3-Sulfolene] | > 90 | –
NC(=O)C(Cl)Cl [2,2-Dichloroacetamide] | – | CC50 at 24 h (AC50 (uM) modified / 1000, Tox21_110001=Tox21_200050, viability, 1 nM T3 present, 24 h): > 90 µM
CCCc1ccc(OC)cc1 [4-Propylanisole] | > 90 | –
CC(C)Br [2-Bromopropane] | – | CC50 at 24 h (AC50 (uM) modified / 1000, Tox21_110001=Tox21_200356, viability, 1 nM T3 present, 24 h): > 90 µM
CN(C)c1cc(NC(=O)CNC(C)(C)C)c(O)c2c1C[C@H]1C[C@H]3[C@H](N(C)C)C(O)=C(C(N)=O)C(=O)[C@@]3(O)C(O)=C1C2=O [Tigecycline] | > 50 | –
O=c1[nH][nH]c2ccccc12 [3-Indazolinone] | > 90 | –
CCN(CC)c1ccc2c(C)cc(=O)oc2c1 [7-Diethylamino-4-methylcoumarin] | > 90 | –
CCCCC(CC)C(=O)Cl (stereo not drawn) [2-Ethylhexanoyl chloride] | > 90 | –
C1CCN(CN2CCCCC2)CC1 [Dipiperidinomethane] | > 90 | –
CC(C)=CCOc1ccc(/C=C/C(=O)c2ccc(OCC=C(C)C)cc2OCC(=O)O)cc1 [Sofalcone] | 43 | –
CCOP(=S)(OCC)Oc1ccc(Cl)cc1Cl [Dichlofenthion] | – | CC50 at 24 h (AC50 (uM) modified / 1000, Tox21_110001=Tox21_301160, viability, 1 nM T3 present, 24 h): > 90 µM
CCCCCCC(O)CCCCCCCCCCC(=O)O (stereo not drawn) [12-Hydroxyoctadecanoic acid] | > 90 | –
Cc1cc(Cl)ccc1OCCCC(=O)O [MCPB] | – | CC50 at 24 h (AC50 (uM) modified / 1000, Tox21_110001=Tox21_201319, viability, 1 nM T3 present, 24 h): > 100 µM; CC50 at 24 h (AC50 (uM) modified / 1000, Tox21_110001=Tox21_303338, viability, 1 nM T3 present, 24 h): > 90 µM
CCCCc1ccccc1 [Butylbenzene] | > 90 | –
COC(=O)CC(C)CCC=C(C)C (stereo not drawn) [Methyl citronellate] | > 90 | –
Cc1ncc(CSSCc2cnc(C)c(O)c2CO)c(CO)c1O [Pyrithioxin dihydrochloride] | > 50 | –
N[C@@H](CSCCCO)C(=O)O [Fudosteine] | > 50 | –
CC(O)(CS(=O)(=O)c1ccc(F)cc1)C(=O)Nc1ccc(C#N)c(C(F)(F)F)c1 (stereo not drawn) [Bicalutamide] | > 50 | –
CCC(C)CCCC(C)(C)O (stereo not drawn) [2,6-Dimethyloctan-2-ol] | > 90 | –

Compound | CC50 at 24 h (AC50 (uM) modified / 1000) [µM] | further results
NS(=O)(=O)c1ccc(NC(=O)CCC(=O)O)cc1 [Sulfasuccinamide] | > 50 | –
CC1OC(=O)C(C)OC1=O (stereo not drawn) [3,6-Dimethyl-2,5-dioxo-1,4-dioxane] | > 90 | –
CCCCOC(=O)c1ccccc1C(=O)OCCCC [Dibutyl phthalate] | > 90 | –
O=c1[nH]c(=O)n([C@H]2C[C@H](O)[C@@H](CO)O2)cc1Br [5-Bromo-2'-deoxyuridine] | > 90 | –
CCCC[C@@H](CC)COC(=O)c1ccccc1C(=O)OC[C@@H](CC)CCCC [Di(2-ethylhexyl) phthalate] | > 90 | –
O=C(NC(=O)c1c(F)cccc1F)Nc1ccc(Cl)c(Oc2ncc(C(F)(F)F)cc2Cl)c1 [Fluazuron] | > 50 | –
C/N=C(\NC)NCc1ccccc1 [Bethanidine sulfate (2:1)] | > 50 | –
CCCn1cc[n+](C)c1 [1-Methyl-3-propylimidazolium iodide] | > 90 | –
Nc1ncnc2c1ncn2[C@@H]1O[C@H](COP(=O)(O)O)[C@@H](O)[C@H]1O [Adenosine 5'-phosphate] | > 50 | –
C#CC(C)(C)O [2-Methyl-3-butyn-2-ol] | – | CC50 at 24 h (AC50 (uM) modified / 1000, Tox21_110001=Tox21_200094, viability, 1 nM T3 present, 24 h): > 90 µM
C[C@H]1CC[C@]2(NC1)O[C@H]1C[C@H]3[C@@H]4CC[C@H]5C[C@@H](O)CC[C@]5(C)[C@H]4CC[C@]3(C)[C@H]1[C@@H]2C [Tomatidine hydrochloride] | 47 | –
O=S1(=O)CCCO1 [1,3-Propane sultone] | > 90 | –
O=C(O)CCCCC1CCSS1 (stereo not drawn) [alpha-Lipoic acid] | > 90 | –
CNC(=O)Oc1ccc(N(C)C)c(C)c1 [Aminocarb] | – | CC50 at 24 h (AC50 (uM) modified / 1000, Tox21_110001=Tox21_301423, viability, 1 nM T3 present, 24 h): > 90 µM
CC1(C)C[C@@H]1C(=O)N/C(=C\CCCCSC[C@H](N)C(=O)O)C(=O)O [Cilastatin sodium] | > 50 | –
CC(NC(C)(C)C)C(=O)c1cccc(Cl)c1 (stereo not drawn) [Bupropion hydrochloride] | > 50 | –
O=P1(N(CCCl)CCCl)NCCCO1 (stereo not drawn) [Cyclophosphamide monohydrate] | > 90 | –
N=C1N=C(N)c2cc3ccccc3cc21 [1,3-Diiminobenz(f)isoindoline] | 39.2 | –
CCCCCCCCOCCC#N [3-(Octyloxy)propanenitrile] | > 90 | –
Nc1nccs1 [2-Aminothiazole] | > 90 | –
